Strand notation (5' to 3'): a small letter for the sugar, then the base; units joined by * are phosphorothioate-linked, units joined directly phosphodiester-linked; [ ] holds rarer units or linkages, { } end groups; capitals alone tell only the bases. e = 2'-O-(2-methoxyethyl) (MOE); [5mC] = 5-methylcytosine; d = 2'-deoxy (DNA)
What was measured:
[1] = test system: human macrophage inflammatory protein 3-alpha mRNA; assay: Antisense inhibition of human macrophage inflammatory protein 3-alpha mRNA levels, quantitative real-time PCR (Table 1 screen); format: cell-based; settings: averages from two experiments, oligonucleotide concentration not given
[2] = test system: human macrophage inflammatory protein 3-alpha mRNA; assay: Dose-response inhibition of cytokine-induced macrophage inflammatory protein 3-alpha mRNA expression in NHEK cells; format: cell-based; settings: 24 Hr after oligonucleotide treatment, percent inhibition of cytokine-induced control, averages from two experiments; for % Inhibition of cytokine induced macrophage inflammatory protein 3-alpha mRNA expression, 50 nM: 50 nM oligonucleotide; for % Inhibition of cytokine induced macrophage inflammatory protein 3-alpha mRNA expression, 100 nM: 100 nM oligonucleotide; for % Inhibition of cytokine induced macrophage inflammatory protein 3-alpha mRNA expression, 200 nM: 200 nM oligonucleotide

| Substance | % INHIB (inhibition of human macrophage inflammatory protein 3-alpha mRNA levels) [1] | % Inhibition of cytokine induced macrophage inflammatory protein 3-alpha mRNA expression, 50 nM [2] | % Inhibition of cytokine induced macrophage inflammatory protein 3-alpha mRNA expression, 100 nM [2] | % Inhibition of cytokine induced macrophage inflammatory protein 3-alpha mRNA expression, 200 nM [2] |
| --- | --- | --- | --- | --- |
| 150677 (antisense eT*eA*e[5mC]*e[5mC]*e[5mC]*dA*dG*dT*dT*d[5mC]*dT*dT*dT*dG*dG*eG*eA*eG*eT*eG) [compound 150677] | 0% |  |  |  |
| 150678 (antisense eA*eG*eT*eG*eT*dT*dG*dA*dG*dT*dA*d[5mC]*d[5mC]*d[5mC]*dA*eG*eT*eT*e[5mC]*eT) [compound 150678] | 34% |  |  |  |
| 150679 (antisense eA*eG*eA*eT*e[5mC]*dT*dG*d[5mC]*dT*d[5mC]*dA*dG*dT*dG*dT*eT*eG*eA*eG*eT) [compound 150679] | 16% |  |  |  |
| 150680 (antisense e[5mC]*eT*e[5mC]*eA*eA*dA*dG*dA*dA*d[5mC]*dA*dG*dA*dT*d[5mC]*eT*eG*e[5mC]*eT*e[5mC]) [compound 150680] | 41% | 13% | 47% | 68% |
| 150681 (antisense eT*eG*eG*eT*eT*dT*dT*dT*dA*dG*d[5mC]*dT*d[5mC]*dA*dA*eA*eG*eA*eA*e[5mC]) [compound 150681] | 22% |  |  |  |
| 150683 (antisense eA*eA*eG*eT*eT*dG*d[5mC]*dT*dT*dG*d[5mC]*dT*dG*d[5mC]*dT*eT*e[5mC]*eT*eG*eA) [compound 150683] | 15% |  |  |  |
| 150684 (antisense e[5mC]*eA*eG*e[5mC]*eA*dG*dT*d[5mC]*dA*dA*dA*dG*dT*dT*dG*e[5mC]*eT*eT*eG*e[5mC]) [compound 150684] | 15% |  |  |  |
| 150685 (antisense eG*eT*eG*eT*eG*dA*dA*dA*dG*dA*dT*dG*dA*dT*dA*eG*e[5mC]*eA*eT*eT) [compound 150685] | 0% |  |  |  |
| 150686 (antisense eA*eT*eT*e[5mC]*e[5mC]*dA*dG*dA*dA*dA*dA*dG*d[5mC]*d[5mC]*dA*e[5mC]*eA*eG*eT*eT) [compound 150686] | 1% |  |  |  |
| 150687 (antisense eG*eT*e[5mC]*e[5mC]*eA*dA*dT*dT*d[5mC]*d[5mC]*dA*dT*dT*d[5mC]*d[5mC]*eA*eG*eA*eA*eA) [compound 150687] | 34% | 19% | 51% | 65% |
| 150688 (antisense e[5mC]*eT*eT*eG*eG*dG*d[5mC]*dT*dA*dT*dG*dT*d[5mC]*d[5mC]*dA*eA*eT*eT*e[5mC]*e[5mC]) [compound 150688] | 46% | 43% | 69% | 80% |
| 150689 (antisense e[5mC]*eA*eA*eG*eG*dT*dT*d[5mC]*dT*dT*dT*d[5mC]*dT*dG*dT*eT*e[5mC]*eT*eT*eG) [compound 150689] | 41% | 16% | 60% | 77% |
| 150692 (antisense eG*e[5mC]*eA*eA*eT*dA*dT*dG*dA*dA*dT*d[5mC]*dA*dA*d[5mC]*eT*eT*e[5mC]*eA*eT) [compound 150692] | 39% | 34% | 59% | 73% |
| 150693 (antisense eA*e[5mC]*eT*eA*eT*dG*dA*dT*dG*d[5mC]*dA*dA*dT*dA*dT*eG*eA*eA*eT*e[5mC]) [compound 150693] | 29% | 25% | 58% | 63% |
| 150694 (antisense eA*eT*eG*eT*eG*dA*dT*dG*d[5mC]*dT*dT*dA*dA*dA*d[5mC]*eA*eA*eA*eG*e[5mC]) [compound 150694] | 30% |  |  |  |
| 150695 (antisense e[5mC]*eA*e[5mC]*eA*eG*dA*dA*dA*dA*d[5mC]*d[5mC]*dT*dA*d[5mC]*dA*eG*e[5mC]*eT*eA*eT) [compound 150695] | 11% |  |  |  |

| Substance | % INHIB (inhibition of human macrophage inflammatory protein 3-alpha mRNA levels) [1] | % Inhibition of cytokine induced macrophage inflammatory protein 3-alpha mRNA expression, 50 nM [2] | % Inhibition of cytokine induced macrophage inflammatory protein 3-alpha mRNA expression, 100 nM [2] | % Inhibition of cytokine induced macrophage inflammatory protein 3-alpha mRNA expression, 200 nM [2] |
| --- | --- | --- | --- | --- |
| 150696 (antisense eG*e[5mC]*eA*e[5mC]*eT*dA*dA*dA*d[5mC]*d[5mC]*dA*dA*dA*dA*dT*eA*eG*e[5mC]*eT*eT) [compound 150696] | 27% |  |  |  |
| 150697 (antisense eG*e[5mC]*eA*eA*eG*dA*dA*dA*dG*dT*d[5mC]*d[5mC]*dA*dT*dA*eT*eA*eA*eT*e[5mC]) [compound 150697] | 18% |  |  |  |
| 150698 (antisense eG*e[5mC]*eA*eA*eT*dT*dA*d[5mC]*dA*dA*d[5mC]*dA*dA*dT*dT*eT*eA*eG*eG*eA) [compound 150698] | 21% |  |  |  |
| ISIS 150678: 2′-MOE gapmer, phosphorothioate, 5-methylcytidines; AGTGTTGAGTACCCAGTTCT (antisense eA*eG*eT*eG*eT*dT*dG*dA*dG*dT*dA*d[5mC]*d[5mC]*d[5mC]*dA*eG*eT*eT*e[5mC]*eT) | at least 20% |  |  |  |
| ISIS 150680: 2′-MOE gapmer, phosphorothioate, 5-methylcytidines; CTCAAAGAACAGATCTGCTC (antisense e[5mC]*eT*e[5mC]*eA*eA*dA*dG*dA*dA*d[5mC]*dA*dG*dA*dT*d[5mC]*eT*eG*e[5mC]*eT*e[5mC]) | at least 20% |  |  |  |
| ISIS 150681: 2′-MOE gapmer, phosphorothioate, 5-methylcytidines; TGGTTTTTAGCTCAAAGAAC (antisense eT*eG*eG*eT*eT*dT*dT*dT*dA*dG*d[5mC]*dT*d[5mC]*dA*dA*eA*eG*eA*eA*e[5mC]) | at least 20% |  |  |  |
| ISIS 150682: 2′-MOE gapmer, phosphorothioate, 5-methylcytidines; GTACAGCACATGGTTTTAG | at least 20% |  |  |  |
| ISIS 150687: 2′-MOE gapmer, phosphorothioate, 5-methylcytidines; GTCCAATTCCATTCCAGAAA (antisense eG*eT*e[5mC]*e[5mC]*eA*dA*dT*dT*d[5mC]*d[5mC]*dA*dT*dT*d[5mC]*d[5mC]*eA*eG*eA*eA*eA) | at least 20% |  |  |  |
| ISIS 150688: 2′-MOE gapmer, phosphorothioate, 5-methylcytidines; CTTGGGCTATGTCCAATTCC (antisense e[5mC]*eT*eT*eG*eG*dG*d[5mC]*dT*dA*dT*dG*dT*d[5mC]*d[5mC]*dA*eA*eT*eT*e[5mC]*e[5mC]) | at least 20% |  |  |  |
| ISIS 150689: 2′-MOE gapmer, phosphorothioate, 5-methylcytidines; CAAGGTTCTTTCTGTTCTTG (antisense e[5mC]*eA*eA*eG*eG*dT*dT*d[5mC]*dT*dT*dT*d[5mC]*dT*dG*dT*eT*e[5mC]*eT*eT*eG) | at least 20% |  |  |  |
| ISIS 150690: 2′-MOE gapmer, phosphorothioate, 5-methylcytidines; CTGAAACCTCCAACCCCAGC | at least 20% |  |  |  |
| ISIS 150692: 2′-MOE gapmer, phosphorothioate, 5-methylcytidines; GCAATATGAATCAACTTCAT (antisense eG*e[5mC]*eA*eA*eT*dA*dT*dG*dA*dA*dT*d[5mC]*dA*dA*d[5mC]*eT*eT*e[5mC]*eA*eT) | at least 20% |  |  |  |
| ISIS 150693: 2′-MOE gapmer, phosphorothioate, 5-methylcytidines; ACTATGATGCAATATGAATC (antisense eA*e[5mC]*eT*eA*eT*dG*dA*dT*dG*d[5mC]*dA*dA*dT*dA*dT*eG*eA*eA*eT*e[5mC]) | at least 20% |  |  |  |
| ISIS 150694: 2′-MOE gapmer, phosphorothioate, 5-methylcytidines; ATGTGATGCTTAAACAAAGC (antisense eA*eT*eG*eT*eG*dA*dT*dG*d[5mC]*dT*dT*dA*dA*dA*d[5mC]*eA*eA*eA*eG*e[5mC]) | at least 20% |  |  |  |
| ISIS 150696: 2′-MOE gapmer, phosphorothioate, 5-methylcytidines; GCACTAAACCAAAATAGCTT (antisense eG*e[5mC]*eA*e[5mC]*eT*dA*dA*dA*d[5mC]*d[5mC]*dA*dA*dA*dA*dT*eA*eG*e[5mC]*eT*eT) | at least 20% |  |  |  |
| ISIS 150698: 2′-MOE gapmer, phosphorothioate, 5-methylcytidines; GCAATTACAACAATTTAGGA (antisense eG*e[5mC]*eA*eA*eT*dT*dA*d[5mC]*dA*dA*d[5mC]*dA*dA*dT*dT*eT*eA*eG*eG*eA) | at least 20% |  |  |  |

Reference: patent US20030144225A1, “Antisense modulation of macrophage inflammatory protein 3-alpha expression” (priority 2001, published 2003)
